# Results as given in patent US20220241369A1, “COMPOSITIONS AND METHODS OF MODULATING INFLAMMATION” (La Jolla Institute for Allergy and Immunology, priority 2018, published 2022).
# Entries after “also recorded” stand apart in the source; their conditions may differ.
# Assays:
# [1] = tested on: CMT-93 murine intestinal epithelial cells; assay: HRF secretion into culture supernatant, western blot, CMT-93; format: cell-based, mouse; conditions: stimulated overnight, 20 or 100 ng/ml
# Method: (§1) FIGS. 4A-4C show HRF is secreted by various cells. CMT-93 murine intestinal epithelial cells (FIG. 4A) and NIH/3T3 murine fibroblasts (FIG. 4B) and Raw264.7 murine macrophages (FIG. 4C) were stimulated overnight with low (20 ng/ml) and high (100 ng/mL) concentrations of various cytokines. HRF secreted into culture supernatants was detected by western blotting. Med and US denote medium only and supernatant from unstimulated cells, respectively. −DTT and +DTT indicate SDS gels were run under non-reducing and reducing conditions, respectively. Gel portions of containing the 23 kDa HRF monomer are shown except that a larger portion of the non-reducing gel is shown in panel C. Arrow indicates the position of HRF dimer, which disappeared under reducing conditions.
# (§2) The following cell lines were cultured in DMEM plus 10% FCS except for U-937 cells which were cultured in RPMI1640 plus 10% FCS: CMT-93 mouse and Caco-2 (with 20% FCS) human intestinal epithelial cell lines; NIH/3T3 mouse fibroblast line; Raw 264.7 mouse and U-937 human macrophage lines; BEAS-2B human bronchial epithelial cell line; 293T human embryonic kidney cell line (obtained from ATCC, Manassas, Va., except for NIH/3T3, which was provided by S. A. Aaronson, NIH). Fibroblast-like stromal cells were cultured from small intestines of BALB/c mice in DMEM/10% FBS. CD4^+ T and B cells were purified from mouse spleens using BD IMag™ Mouse CD4 and B cells enrichment set-DM. Low-density bone-marrow cells were cultured in the presence of 100 ng/ml of stem cell factor (PeproTech) and 100 ng/ml of FLT-3 ligand (R&D Systems) for 4 days, and with 10 ng/mL of IL-5 (R&D Systems) thereafter for 10 days to obtain bone marrow-derived eosinophils (44). Bone marrow cells were cultured in the presence of 20 ng/ml of GM-CSF for 6 days and adherent cells were collected as bone marrow-derived macrophages. Non-adherent cells were further cultured with 5 ng/ml GM-CSF and the non-adherent cells were collected as bone marrow-derived dendritic cells. […]
# [2] = tested on: Raw264.7 murine macrophages; assay: HRF secretion into culture supernatant, western blot, macrophages; format: cell-based, mouse; conditions: stimulated overnight, 20 or 100 ng/ml
# Method: as §1, §2
# [3] = tested on: BEAS-2B human bronchial epithelial cells; assay: HRF secretion, western blot, BEAS-2B; format: cell-based; conditions: combination of HDM and cytokine, 24 h
# Description: As lung epithelial cells are exposed to the environment, HRF secretion was studied using BEAS-2B human bronchial epithelial cells. A small amount of HRF was secreted constitutively, but house dust mite allergens induced the secretion of high-molecular-weight HRF species (HMW-HRFs). Various cytokines including epithelial derived cytokines as well as Th2 cytokines and proinflammatory cytokines further enhanced HDM-induced secretion of HMW-HRFs.
# Cultured cells were scraped and treated with adenosine and ATP, which should be abundantly present in inflammatory or injured tissues. These conditions induced secretion of HRF monomer, dimer and HMW-HRFs like stimulation with HDM plus cytokines.
# Culture supernatants were analyzed by SDS-PAGE under nonreducing (−DTT) and reducing (+DTT) conditions, followed by western blotting for HRF probing. HDM-induced HRF secretion was enhanced not only by Th2 cytokines (IL-4, IL-5, and IL-13), but also by epithelial derived cytokines (IL-25, IL-33, and TSLP) and proinflammatory cytokines (IL-1beta, IL-6 and TNF). med, medium alone; US, unstimulated; HDM, house dust mite; CR, cockroach; RW, ragweed; Af, Aspergillus fumigatus. Arrowhead, HRF monomer.
# [4] = tested on: OVA-induced food allergy (allergic diarrhea); assay: IgE-mediated experimental food allergy, i.g. pretreatment with HRF inhibitor before each OVA challenge; format: in vivo, mouse
# Method: FIGS. 1A-1I show GST-N19 inhibits the development of diarrhea and intestinal mastocytosis in murine food allergy. Mice were i.p. sensitized with OVA ([…]) plus alum on days 0 and 14. From day 28, mice were i.g. challenged with OVA (50 mg) three times a week. Sensitized mice were either non-pretreated (−) or i.g. pretreated with 100 μg of GST or GST-N19 (N19). (FIG. 1A) Procedure scheme. (FIG. 1B) The development of diarrhea was monitored for 90 min after each OVA challenge. (n=5 for non-sensitized group, n=3 for inhibitor non-pretreated group, n=4 for GST group, n=6 for N19 group, data are representative of at least 3 independent experiments) Log-rank test: p=0.028 (GST vs. GST-N19), p=0.036 (control vs. GST-N19). […] (FIG. 1C-FIG. 1E) Total IgE, IgG1, HRF, and HRF-reactive IgE and IgG in sera were measured by ELISA. (FIG. 1F) Serum mMCP-1 was also measured by ELISA. (FIG. 1G) Sections of jejunum were stained with chloroacetate esterase to identify mast cells. Sections indicated by rectangles are enlarged in lower rows. Bar=100 μm in large pictures and 50 μm in insets. (FIG. 1H) Flow cytometry was performed to enumerate MMC9s (Lin^−c-Kit^+ST2^+IL-17RB^−Integrin β7^lo) in jejunum. (n=14 for non-sensitized group, n=15 for inhibitor non-pretreated group, n=9 for GST group, n=9 for GST-N19 group, pooled data of 3 independent experiments) (FIG. 1I) Cytokine mRNAs in jejunum were quantified by qRT-PCR. *, **: p<0.05, p<0.01 by ANOVA with Tukey's multiple comparison.
# Mice were i.p. sensitized with OVA (50 μg/mouse) plus alum on days 0 and 14. From day 28, mice were i.g. challenged with OVA (25 or 50 mg) or PBS (control) three times a week. Before each challenge, mice were starved for 3 h, then i.g. pretreated with GST, GST-N19 (100 μg/mouse), synthetic N19 peptide, or HRF-2CA. The development of diarrhea was monitored for 90 min after OVA challenge. Diarrhea severity (30) was based on states of stool: solid (score 0), funicular (score 1), slurry (score 2), and watery (score 3).
# For histologic analysis, jejunal tissue was fixed in 10% formalin. Mast cells in jejunal sections were detected by chloroacetate esterase staining. IgE, IgG, IgG1, IgG2a, mMCP-1, HRF, HRF-reactive IgE, and HRF-reactive IgG 24 h after the last OVA challenge were measured by ELISA (see Supplemental Information). Cytokine mRNAs in jejunum were quantified by qRT-PCR.
# Twenty-four hours after the last OVA challenge, mice were sacrificed and small intestines (0.5-15 cm from stomach) were collected. The intestinal tissues were opened longitudinally and washed with HBSS. The washed tissues were incubated with 5 mM EDTA-HBSS for 30 min at 4° C., transferred to 30 ml HBSS in 50 ml tubes, and vigorously shaken to remove intestinal epithelial cells. The tissues were then washed with 10 ml of 10% FCS RPMI medium. Tissues were cut into tiny pieces and incubated with 2.4 mg/ml Collagenase D and 0.2 mg/ml DNase for 30 min at 37° C. Then cells were washed, resuspended in 44% Percoll solution, and slowly loaded on the top of 67% Percoll solution. The cells were centrifuged (1800 rpm, 20 min) and lymphocyte fractions were collected and used for detection of MMC9s (Lin^−c-Kit^+ST2^+IL-17RB^−Integrin β7^lo).
# The cells were first incubated with 2.4G2 for 15 min at 4° C. and further incubated with Abs (PE-anti-07 integrin mAb (clone FIB504), PerCP/Cy5.5-anti-CD4 mAb (clone RM4-5), PerCP/Cy5.5-anti-CD8 mAb (clone 53-6.7), PerCP/Cy5.5-anti-CD11b mAb (clone M1/70), PerCP/Cy5.5-anti-CD11c mAb (clone N418), PerCP/Cy5.5-anti-B220 mAb (RA3-6B2), PerCP/Cy5.5-anti-Ly-6G/Ly-6C mAb (clone RB6-8C5), PerCP/Cy5.5-anti-CD335 mAb (clone 29A1.4), AlexaFluor647-anti-IL-17RB (clone 9B10), APC/Cy7-anti-CD117 (clone 2B8), Biotin-anti-ST2 (clone DIH9)) (Biolegend) for 30 min at 4° C. After washed, the cells were incubated with SA-BV421 (Biolegend) for 30 min at 4° C. MMC9 population was identified using FACS Canto. Data were analyzed using FlowJo software.
# [5] = tested on: sensitization phase of murine food allergy; assay: Pretreatment with HRF inhibitor before sensitization with OVA plus alum; format: in vivo, mouse; conditions: 100 μg i.g. one day before i.p. immunization on days 0 and 14
# Method: Mice were i.g. pretreated with 100 μg of GST, GST-N19, HRF-2CA or PBS (OVA) one day before i.p. immunization with OVA plus alum on days 0 and 14. From day 28, mice were i.g. challenged with OVA three times a week. (FIG. 9A) Procedure scheme. (FIG. 9B) The development of diarrhea was monitored after OVA challenge. (n=5 for OVA, n=4 for GST, n=5 for N19, n=5 for 2CA, and n=3 each for unsensitized pretreated groups (not shown)). (FIG. 9C, FIG. 9D) Total IgE and IgG1 were measured by ELISA.
# Whether HRF inhibitors affect the sensitization phase of food allergy was tested.
# IgE+ mMCP-1+ mast cells = assay: Localization of gavaged HRF inhibitors in jejunum by confocal microscopy; format: in vivo, mouse
# Method: HRF multimers in the jejunum of non-sensitized/OVA challenged (Cont, n=6) or OVA-sensitized/OVA-challenged (OVA, n=5) mice were quantified by a newly developed ELISA (FIG. 3A, FIG. 3C). HRF was also measured by ELISA (FIG. 3B). HRF dimer and monomer were quantified by western blotting in control (Cont) and food allergic mice treated without (OVA) or with GST (GST) or GST-N19 (N19) (n=5 for each group) (FIG. 3D). Allergic diarrhea was induced by 6 challenges. On the day of 7th challenge, the mice were gavaged with 0.1 mg of GST or GST-N19 (FIG. 3E). One hour later, mice were sacrificed without OVA challenge. Jejunum tissues were stained for GST, IgE, and mMCP-1 before confocal microscopy (n=5 for GST and n=6 for GST-N19). Arrows indicate cells positive for GST or GST-N19 as well as IgE and mMCP-1. […] Bars=50 μm.
# Jejunum biopsy was fixed in 4% paraformaldehyde at 4° C., washed in 10-20% sucrose in phosphate buffered saline, and embedded in O.C.T. compound (Sakura Finetek, Japan). Cyrosections were made in 6 μm and blocked with 2% skim milk. Immunostaining was performed with anti-HRF (rabbit polyclonal FL-172), anti-GST (rabbit polyclonal Z-5) (Santa Cruz Biotechnology), anti-IgE (clone RME-1 from Biolegend and clone R35-72 from BD Biosciences), anti-mMCP1 (Catalog #AF5146, R&D Systems), anti-CD45 (clone 30-F11), anti-CD63 (clone NVG-2) (Biolegend), and anti-Siglec F (clone E50-2440, BD Biosciences) as primary antibodies, and anti-Rabbit Alexa Fluor 647 (Catalog #A21245), anti-Rat Alexa Fluor 568 (Catalog #A11077), and anti-Sheep Alexa Fluor 555 (Catalog #A11015) (Thermo Fisher Scientific) as secondary antibodies. Coverslips were mounted with Prolong Gold with DAPI (Thermo Fisher Scientific) and fluorescence was observed under Leica TCS SP2 confocal microscopy (Leica) and Nuance Multi spectral Imaging System (PerkinElmer).
# Applicant next tested whether HRF inhibitors target mucosal mast cells. To this end, mice with allergic diarrhea were i.g. gavaged with GST-N19 or GST, and their location was identified 1 h after their gavage.
# anti-TNP IgE C38-2 = assay: cell-based or functional assay
# [6] = sensitized mice pretreated i.g. with 100 μg before each OVA challenge
molecule,measurement,setting,value
IL-13: Th2 cytokine,HRF secretion,[1],strongly induced
same,HRF dimer,[2]; non-reducing gel,increased
same,HDM-induced HRF secretion,[3],enhanced
GST-N19: GST-tagged N-terminal 19 amino acids of HRF; HRF inhibitor,serum mMCP-1 level,"[4]; i.g. pretreatment before each OVA challenge, ELISA",reduced
same,number of mucosal mast cells in jejunum (intestinal mastocytosis),"[4]; i.g. pretreatment before each OVA challenge, chloroacetate esterase staining",inhibits; also recorded: reduced
same,MMC9s in jejunum,"[4]; i.g. pretreatment, flow cytometry",reduced
same,Th2 cytokine mRNAs (Il4 and Il13) in jejunum,"[4]; i.g. pretreatment, qRT-PCR",repressed
same,"levels of total IgE, IgG1, IgG2a or HRF-reactive IgE and IgG","[4]; i.g. pretreatment, serum ELISA",not reduced
same,diarrhea occurrence / incidence,[4]; [6],inhibits; also recorded: reduced
same,onset of diarrhea,[4]; [6],delayed
same,sensitization phase of murine food allergy,[5],do not affect
same,targeting of mast cells in jejunum,IgE+ mMCP-1+ mast cells; after i.g. gavage,preferentially targets
same,IgE+ mMCP-1+ mast cells co-localized with the substance,"IgE+ mMCP-1+ mast cells; mice with allergic diarrhea, 1 h after i.g. gavage of 0.1 mg, anti-GST staining",about 65%
IL-6: proinflammatory cytokine,HRF secretion,[1],strongly induced
same,secretion of HRF monomer,[2],increased
same,HDM-induced HRF secretion,[3],enhanced
"recombinant dimeric murine HRF (HRF-His6, Sephacryl fraction Fr1) (ligand, disulfide bond Cys172-Cys172 between the two monomers) MIIYRDLISHDELFSDIYKIREIADGLCLEVEGKMVSRTEGAIDDSLIGGNASAEGPEGEGTESTVVTGVDIVMNHHLQETSFTKEAYKKYIKDYMKSLKGKLEEQKPERVKPFMTGAAEQIKHILANFNNYQFFIGENMNPDGMVALLDYREDGVTPFMIFFKDGLEMEKCHHHHHH",EC50 of antigen TNP3-BSA for IL-13 release from C38-2-sensitized mouse BMMCs in the presence of 25 µg/ml mHRF dimer (156 ng/ml for 0 µg/ml mHRF dimer),anti-TNP IgE C38-2,0.124 µg/mL
same,EC50 of antigen TNP3-BSA for IL-13 release from C38-2-sensitized mouse BMMCs in the presence of 50 µg/ml mHRF dimer (156 ng/ml for 0 µg/ml mHRF dimer),anti-TNP IgE C38-2,0.092 µg/mL
